In this assay the target is T1, Alexa fluor-647 labeled human PD-L1-Ig binding to Jurkat cell line over-expressing human PD-1 (Homo sapiens, UniProt Q15116).
T1 construct: expressed in transfected cells; host or cells: Jurkat
Kind of assay: Jurkat-PD-1 Cell Binding High-Content Screening Assay (CBA): Method 3 (Alexa fluor-647 labeled PD-L1-Ig). The conditions noted are these: Jurkat-PD-1 cells, Alexa fluor-647 labeled PD-L1-Ig 177 nM. As for the experimental part: Jurkat-PD-1 Cell Binding High-Content Screening Assay (CBA): Method 3
Alexa fluor-647 was covalently linked to the Ig epitope tag of human PD-L1-Ig and fluorescently labeled PD-L1-Ig was used for the binding studies with a Jurkat cell line over-expressing human PD-1. Briefly, 2.5×10^4 Jurkat-hPD-1 cells were seeded into 384 well plates in 20 μl of RPMI supplemented with 10% fetal calf serum. 12.5 nl of compound was added to cells followed by incubation at 37° C. for 2 hours. Then, 10 ul of Alexa fluor-647 labeled PD-L1-Ig (177 nM final), diluted in RPMI supplemented with 10% fetal calf serum was added to the cells and incubated for 1 hour. Cells were then fixed with 4% paraformaldehyde containing 10 μg/ml Hoechst 33342 and then washed 3× in 100 ul PBS and 100 ul of PBS was added in the final step. Data was collected using the Operetta High Content Imager and the data was analyzed using the columbus software.

The mark [1] stands for this setting: head μM, read-out: CBA Method 3 μM.

SMILES strings stand for the structures. Where two headings read alike, the source gives them in different places. Numbered stars: 1 amine (or outer) side, 2 acyl side, 3 side chain; on linkers, the order of the positions; unused ones are H or OH. Bridge positions count the residues as written; N and C are the ends. Square brackets hold non-standard residues; d marks the D form. Peptide text beside a SMILES is read from it. * marks the point of attachment. ξ: configuration not given here. X51 = O=C([C@H](Cc1cccc(-c2cccc(S(=O)(=O)N3CCOCC3)c2)c1)N[*:1])[*:2]; Bip(4'-COOH) = N[C@@H](Cc1ccc(-c2ccc(C(=O)O)cc2)cc1)C(=O)O; Bip(4'-NHAc) = CC(=O)Nc1ccc(-c2ccc(C[C@H](N)C(=O)O)cc2)cc1; Phe(3-CF3) = N[C@@H](Cc1cccc(C(F)(F)F)c1)C(=O)O; Ala(morpholin-4-yl) = N[C@@H](CN1CCOCC1)C(=O)O; Phe(4-CONH2) = NC(=O)c1ccc(C[C@H](N)C(=O)O)cc1; Phe(4-COOH) = N[C@@H](Cc1ccc(C(=O)O)cc1)C(=O)O; Bip = N[C@@H](Cc1ccc(-c2ccccc2)cc1)C(=O)O; Abu(3R-NH2) = C[C@@H](N)[C@H](N)C(=O)O; Phe(3-Me) = Cc1cccc(C[C@H](N)C(=O)O)c1; Glutaryl = O=C(CCCC(=O)[*:2])[*:1]; Val(3-OH) = CC(C)(O)[C@H](N)C(=O)O; hPhe = N[C@@H](CCc1ccccc1)C(=O)O; Cha = N[C@@H](CC1CCCCC1)C(=O)O; Thr(3ξ) = CC(O)[C@H](N)C(=O)O; Carboxymethyl = O=C(O)C*; NMeA = CN[C@@H](C)C(=O)O; Orn = NCCC[C@H](N)C(=O)O; Dab = NCC[C@H](N)C(=O)O; Dap = NC[C@H](N)C(=O)O

T1 sequence (Q15116 25-288): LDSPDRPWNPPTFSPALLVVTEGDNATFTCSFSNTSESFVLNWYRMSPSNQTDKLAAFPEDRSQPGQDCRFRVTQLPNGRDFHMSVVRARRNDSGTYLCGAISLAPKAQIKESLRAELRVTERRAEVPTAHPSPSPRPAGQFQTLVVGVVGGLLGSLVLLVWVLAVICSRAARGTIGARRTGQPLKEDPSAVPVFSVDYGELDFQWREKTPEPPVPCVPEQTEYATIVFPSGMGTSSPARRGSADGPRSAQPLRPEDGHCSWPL

Consider `CC(=O)Nc1ccc(-c2ccc(C[C@@H]3NC(=O)[C@H](Cc4cccc(C(F)(F)F)c4)NC(=O)[C@H](CC(=O)O)NC(=O)[C@H](Cc4ccc(C(=O)O)cc4)NC(=O)[C@H](CN4CCOCC4)NC(=O)CSC[C@@H](C(=O)N[C@@H](CCN)C(N)=O)NC(=O)[C@H](CCC(=O)O)NC(=O)[C@H](C(C)C)NC(=O)[C@H](CC4CCCCC4)NC(=O)[C@H](CCN)NC(=O)[C@@H](CC(C)C)NC(=O)[C@H](C)N(C)C(=O)[C@H](Cc4ccc(C(=O)O)cc4)NC(=O)[C@H](Cc4ccc(-c5ccccc5)cc4)NC3=O)cc2)cc1` [Example 5149] ({CH2CO}-[Ala(morpholin-4-yl)][Phe(4-COOH)]D[Phe(3-CF3)][Bip(4'-NHAc)][Bip][Phe(4-COOH)][NMeA][dL][Dab][Cha]VEC[Dab]-NH2; thioether N-14), for which the IC50 (nM, read-out: CBA Method 3) stood at 5.9 nM. Same read-out and setting: to `CC(C)C[C@H]1NC(=O)[C@H](C)N(C)C(=O)[C@H](CCC(N)=O)NC(=O)[C@H](Cc2ccc(-c3ccccc3)cc2)NC(=O)[C@H](CCc2ccccc2)NC(=O)[C@H](Cc2cccc(C(F)(F)F)c2)NC(=O)[C@H](CC(=O)O)NC(=O)[C@H](Cc2ccc(O)cc2)NC(=O)[C@H](CC2CCCCC2)NC(=O)CSC[C@@H](C(=O)N[C@@H](CCN)C(N)=O)NC(=O)[C@H](CCC(N)=O)NC(=O)[C@H](C(C)C)NC(=O)[C@H](CC2CCCCC2)NC(=O)[C@H](CCN)NC1=O` [Example 5241] ({CH2CO}-[Cha]YD[Phe(3-CF3)][hPhe][Bip]Q[NMeA][dL][Dab][Cha]VQC[Dab]-NH2; thioether N-14) belongs 0.4 nM; to `CC(=O)Nc1ccc(-c2ccc(C[C@@H]3NC(=O)[C@H](Cc4cccc(C)c4)NC(=O)[C@H](CC(=O)O)NC(=O)[C@H](Cc4ccc(-c5ccc(C(=O)O)cc5)cc4)NC(=O)[C@H](CN4CCOCC4)NC(=O)CSC[C@@H](C(=O)N[C@@H](CCN)C(N)=O)NC(=O)[C@H](CCC(=O)O)NC(=O)[C@H](C(C)C)NC(=O)[C@H](CC4CCCCC4)NC(=O)[C@H](Cc4cnc[nH]4)NC(=O)[C@@H](CC(C)C)NC(=O)[C@H](C)N(C)C(=O)[C@H](Cc4ccc(C(=O)O)cc4)NC(=O)[C@H](Cc4ccc(-c5ccccc5)cc4)NC3=O)cc2)cc1` [Example 5253] ({CH2CO}-[Ala(morpholin-4-yl)][Bip(4'-COOH)]D[Phe(3-Me)][Bip(4'-NHAc)][Bip][Phe(4-COOH)][NMeA][dL]H[Cha]VEC[Dab]-NH2; thioether N-14), 2.8 nM. Take `Cc1cccc(C[C@@H]2NC(=O)[C@H](CC(=O)O)NC(=O)[C@H](Cc3ccc(C(=O)O)cc3)NC(=O)[C@H](CC3CCCCC3)NC(=O)CSC[C@@H](C(=O)N[C@@H](CCN)C(N)=O)NC(=O)[C@H](CCC(=O)O)NC(=O)[C@H](C(C)C)NC(=O)[C@H](CC3CCCCC3)NC(=O)[C@H](CCN)NC(=O)[C@@H](CC(C)C)NC(=O)[C@H](C)N(C)C(=O)[C@H](Cc3ccc(C(=O)O)cc3)NC(=O)[C@H](Cc3ccc(-c4ccccc4)cc3)NC(=O)[C@H](Cc3ccc(OCC(=O)O)cc3)NC2=O)c1` [Example 5201] ({CH2CO}-[Cha][Phe(4-COOH)]D[Phe(3-Me)]Y(Carboxymethyl)[Bip][Phe(4-COOH)][NMeA][dL][Dab][Cha]VEC[Dab]-NH2; thioether N-14): the IC50 (nM, read-out: CBA Method 3) was found to be 6.2 nM. Regarding `CC(C)C[C@H]1NC(=O)[C@H](C)N(C)C(=O)[C@H](Cc2ccc(OCC(=O)O)cc2)NC(=O)[C@H](Cc2ccc(-c3ccccc3)cc2)NC(=O)[C@H](Cc2ccc(C(=O)O)cc2)NC(=O)[C@H](Cc2cccc(C(F)(F)F)c2)NC(=O)[C@H](CC(=O)O)NC(=O)[C@H](Cc2ccc(OCC(=O)O)cc2)NC(=O)[C@H](C(C)O)NC(=O)CSC[C@@H](C(=O)N[C@@H](CCN)C(N)=O)NC(=O)[C@H]([C@@H](C)O)NC(=O)[C@H](C(C)C)NC(=O)[C@H](CC2CCCCC2)NC(=O)[C@H](CCN)NC1=O` (stereo partly drawn) [Example 5143] ({CH2CO}-[Thr(3ξ)]Y(Carboxymethyl)D[Phe(3-CF3)][Phe(4-COOH)][Bip]Y(Carboxymethyl)[NMeA][dL][Dab][Cha]VTC[Dab]-NH2; thioether N-14), the IC50 (nM, read-out: CBA Method 3) came to 7 nM. Regarding `Cc1cccc(C[C@@H]2NC(=O)[C@H](CC(=O)O)NC(=O)[C@H](Cc3ccc(C(=O)O)cc3)NC(=O)[C@H](CC3CCCCC3)NC(=O)CSC[C@@H](C(=O)N[C@@H](CCN)C(N)=O)NC(=O)[C@H](CCC(=O)O)NC(=O)[C@H](C(C)C)NC(=O)[C@H](CC3CCCCC3)NC(=O)[C@H](CCN)NC(=O)[C@@H](CC(C)C)NC(=O)[C@H](C)N(C)C(=O)[C@H](Cc3ccc(C(=O)O)cc3)NC(=O)[C@H](Cc3ccc(-c4ccccc4)cc3)NC(=O)[C@H](Cc3ccc(-c4ccc(C(=O)O)cc4)cc3)NC2=O)c1` [Example 5198] ({CH2CO}-[Cha][Phe(4-COOH)]D[Phe(3-Me)][Bip(4'-COOH)][Bip][Phe(4-COOH)][NMeA][dL][Dab][Cha]VEC[Dab]-NH2; thioether N-14), the IC50 under setting [1] was found to be 10 nM. The same measure, in the same setting: to `CC(=O)Nc1ccc(-c2ccc(C[C@@H]3NC(=O)[C@H](Cc4cccc(C(F)(F)F)c4)NC(=O)[C@H](CC(=O)O)NC(=O)[C@H](Cc4ccc(C(=O)O)cc4)NC(=O)[C@H](CCN)NC(=O)CSC[C@@H](C(=O)N[C@@H](CCN)C(N)=O)NC(=O)[C@H](CCC(N)=O)NC(=O)[C@H](C(C)C)NC(=O)[C@H](CC4CCCCC4)NC(=O)[C@H](CCN)NC(=O)[C@@H](CC(C)C)NC(=O)[C@H](C)N(C)C(=O)[C@H](Cc4ccc(C(N)=O)cc4)NC(=O)[C@H](Cc4ccc(-c5ccccc5)cc4)NC3=O)cc2)cc1` [Example 5097] ({CH2CO}-[Dab][Phe(4-COOH)]D[Phe(3-CF3)][Bip(4'-NHAc)][Bip][Phe(4-CONH2)][NMeA][dL][Dab][Cha]VQC[Dab]-NH2; thioether N-14) belongs 20 nM. For `CC(C)C[C@H]1NC(=O)[C@H](C)N(C)C(=O)[C@H](Cc2ccc(C(=O)O)cc2)NC(=O)[C@H](Cc2ccc(-c3ccccc3)cc2)NC(=O)[C@H](Cc2ccc(C(=O)O)cc2)NC(=O)[C@H](Cc2cccc(C(F)(F)F)c2)NC(=O)[C@H](CC(=O)O)NC(=O)[C@H](Cc2ccc(C(=O)O)cc2)NC(=O)[C@H](CN2CCOCC2)NC(=O)CSC[C@@H](C(=O)N[C@@H](CCN)C(N)=O)NC(=O)[C@H](CNC(=O)CCCC(=O)O)NC(=O)[C@H](C(C)C)NC(=O)[C@H](CC2CCCCC2)NC(=O)[C@H](CCN)NC1=O` [Example 5234] ({CH2CO}-[Ala(morpholin-4-yl)][Phe(4-COOH)]D[Phe(3-CF3)][Phe(4-COOH)][Bip][Phe(4-COOH)][NMeA][dL][Dab][Cha]V[Dap](Glutaryl)C[Dab]-NH2; thioether N-14), under “nM, read-out: CBA Method 3”, the IC50 amounted to 3.4 nM.

Regarding `Cc1cccc(C[C@@H]2NC(=O)[C@H](CC(=O)O)NC(=O)[C@H](Cc3ccc(OCC(=O)O)cc3)NC(=O)[C@H](CC3CCCCC3)NC(=O)CSC[C@@H](C(=O)N[C@@H](CCN)C(N)=O)NC(=O)[C@H](CCCN)NC(=O)[C@H](C(C)C)NC(=O)[C@H](CC3CCCCC3)NC(=O)[C@H](CCN)NC(=O)[C@@H](CC(C)C)NC(=O)[C@H](C)N(C)C(=O)[C@H](CCC(N)=O)NC(=O)[C@H](Cc3ccc(-c4ccccc4)cc3)NC(=O)[C@H](CCc3ccccc3)NC2=O)c1` [Example 5218] ({CH2CO}-[Cha]Y(Carboxymethyl)D[Phe(3-Me)][hPhe][Bip]Q[NMeA][dL][Dab][Cha]V[Orn]C[Dab]-NH2; thioether N-14), the IC50 under setting [1] is 20 nM. As for `CC(=O)Nc1ccc(-c2ccc(C[C@@H]3NC(=O)[C@H](Cc4cccc(C)c4)NC(=O)[C@H](CC(=O)O)NC(=O)[C@H](Cc4ccc(-c5ccc(C(=O)O)cc5)cc4)NC(=O)[C@H](CN4CCOCC4)NC(=O)CSC[C@@H](C(=O)N[C@@H](CCN)C(N)=O)NC(=O)[C@H](CO)NC(=O)[C@H](C(C)(C)O)NC(=O)[C@H](CC4CCCCC4)NC(=O)[C@H](CC(N)=O)NC(=O)[C@@H](CC(C)C)NC(=O)[C@H](C)N(C)C(=O)[C@H](Cc4ccc(OCC(=O)O)cc4)NC(=O)[C@H](Cc4ccc(-c5ccccc5)cc4)NC3=O)cc2)cc1` [Example 5129] ({CH2CO}-[Ala(morpholin-4-yl)][Bip(4'-COOH)]D[Phe(3-Me)][Bip(4'-NHAc)][Bip]Y(Carboxymethyl)[NMeA][dL]N[Cha][Val(3-OH)]SC[Dab]-NH2; thioether N-14), the IC50 under setting [1] is 30 nM. Regarding `Cc1cccc(C[C@@H]2NC(=O)[C@H](CC(=O)O)NC(=O)[C@H](Cc3ccc(OCC(=O)O)cc3)NC(=O)[C@H](CN3CCOCC3)NC(=O)CSC[C@@H](C(=O)N[C@@H](CCN)C(N)=O)NC(=O)[C@H](CCCN)NC(=O)[C@H](C(C)C)NC(=O)[C@H](CC3CCCCC3)NC(=O)[C@H](CCN)NC(=O)[C@@H](CC(C)C)NC(=O)[C@H](C)N(C)C(=O)[C@H](CCC(N)=O)NC(=O)[C@H](Cc3ccc(-c4ccccc4)cc3)NC(=O)[C@H](Cc3cccc(-c4cccc(S(=O)(=O)N5CCOCC5)c4)c3)NC2=O)c1` [Example 5106] ({CH2CO}-[Ala(morpholin-4-yl)]Y(Carboxymethyl)D[Phe(3-Me)][X51][Bip]Q[NMeA][dL][Dab][Cha]V[Orn]C[Dab]-NH2; thioether N-14), under setting [1], the IC50 amounted to 60 nM. Turning to `CC(C)C[C@H]1NC(=O)[C@H](C)N(C)C(=O)[C@H](CCC(N)=O)NC(=O)[C@H](Cc2ccc(-c3ccccc3)cc2)NC(=O)[C@H](Cc2ccc(OCC(=O)O)cc2)NC(=O)[C@H](Cc2cccc(C(F)(F)F)c2)NC(=O)[C@H](CC(=O)O)NC(=O)[C@H](Cc2ccc(OCC(=O)O)cc2)NC(=O)[C@H]([C@@H](C)N)NC(=O)CSC[C@@H](C(=O)N[C@@H](CCN)C(N)=O)NC(=O)[C@H](CCCN)NC(=O)[C@H](C(C)C)NC(=O)[C@H](CC2CCCCC2)NC(=O)[C@H](CCN)NC1=O` [Example 5220] ({CH2CO}-[Abu(3R-NH2)]Y(Carboxymethyl)D[Phe(3-CF3)]Y(Carboxymethyl)[Bip]Q[NMeA][dL][Dab][Cha]V[Orn]C[Dab]-NH2; thioether N-14), the IC50 (nM, read-out: CBA Method 3) was found to be 2.4 nM.

Values taken from patent US20240409585A1, “MACROCYCLIC IMMUNOMODULATORS” (priority 2021, published 2024).
